Experiment [1] has as its target T1, human Adenosine A2b receptor (Homo sapiens, UniProt P29275).
T1 construct: expressed in transfected cells; host or cells: CHO cell membranes
T1 sequence (P29275 1-332): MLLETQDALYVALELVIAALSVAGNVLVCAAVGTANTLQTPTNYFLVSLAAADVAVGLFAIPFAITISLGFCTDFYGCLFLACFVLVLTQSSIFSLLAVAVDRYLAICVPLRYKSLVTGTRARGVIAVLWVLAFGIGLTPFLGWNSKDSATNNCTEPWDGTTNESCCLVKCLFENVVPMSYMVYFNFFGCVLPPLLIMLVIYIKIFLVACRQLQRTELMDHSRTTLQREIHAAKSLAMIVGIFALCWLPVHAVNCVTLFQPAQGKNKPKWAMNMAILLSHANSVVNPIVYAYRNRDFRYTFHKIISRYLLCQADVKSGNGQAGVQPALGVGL
As to the kind of experiment: Adenosine receptor TR-FRET binding assay (CA200645 displacement), A2b. The settings on record: 30 nM CA200645, CHO cell membranes, 2 hours at room temperature.
Description: All FRET binding experiments were conducted at room temperature in white 384-well plates, in assay binding buffer containing 1×LabMed (Cisbio, France), 100 μg/mL saponin, 1% DMSO and 0.02% pluronic acid. Binding of the fluorescently labelled Adenosine receptor antagonist XAC (CA200645, FRET acceptor) to terbium-labelled A1, A2a, A2b and A3 adenosine receptors (FRET donors) was detected by time-resolved FRET due to the close proximity of the donor and acceptor in a binding event. To investigate the ability of unlabelled test compounds to bind to Adenosine A1, A2a, A2b and A3 receptors, dose response curves were constructed that determined the ability of a range of concentrations to inhibit the binding of 30 nM CA200645 to the A2b receptor and 100 nM CA200645 to the A1, A2a, and A3 receptor.
Serial dilution (1:3 dilutions) of test compounds in neat DMSO and transfer of a 400 nL sample of test compound into the assay plate was carried out using the Mosquito (TTP Labtech, UK). The compound samples were incubated for 2 hours at room temperature with a fixed concentration of CA200645 defined for each receptor (see above) and CHO cell membranes containing the human Adenosine A1 (0.5 μg/well), A2a (0.3 μg/well), A2b (1 μg/well) or A3 (1 μg/well) receptor in 40 μL of assay buffer. Total and non-specific binding of CA200645 was determined in the absence and presence of 10 μM XAC, respectively. Following 2 hours incubation, the level of CA200645 binding was detected on a Pherastar FSX (BMG Labtech, Germany) using standard TR-FRET settings. The terbium donor was excited with three laser flashes at a wavelength of 337 nm, and donor and acceptor emission was detected at 620 nm and 665 nm wavelengths, respectively. FRET ratios were obtained by multiplying the acceptor/donor ratio value by 10,000. Specific binding was determined by subtracting the non-specific binding FRET ratio from the total binding FRET ratio. Compound IC50 curves were analysed using GraphPad Prism 7.0 (GraphPad, USA) and Ki affinity values were determined from the obtained IC50 values using the method of Cheng and Prusoff.

Experiment [2] concerns the target T2, human Adenosine A1 receptor (Homo sapiens, UniProt P30542).
T2 sequence (P30542 1-326): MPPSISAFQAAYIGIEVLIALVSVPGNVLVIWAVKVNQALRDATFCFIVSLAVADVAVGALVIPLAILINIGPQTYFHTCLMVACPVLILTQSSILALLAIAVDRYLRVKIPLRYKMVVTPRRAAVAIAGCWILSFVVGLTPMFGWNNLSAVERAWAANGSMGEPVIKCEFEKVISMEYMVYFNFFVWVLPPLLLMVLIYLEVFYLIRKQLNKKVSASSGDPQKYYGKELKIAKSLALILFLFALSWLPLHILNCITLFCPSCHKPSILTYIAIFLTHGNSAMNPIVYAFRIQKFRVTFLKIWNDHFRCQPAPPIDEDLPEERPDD
As to the kind of experiment: Adenosine receptor TR-FRET binding assay (CA200645 displacement), A1.

The target in experiment [3] is T3, human Adenosine A2a receptor (Homo sapiens, UniProt P29274).
T3 construct: expressed in transfected cells; host or cells: CHO cell membranes
T3 sequence (P29274 whole entry): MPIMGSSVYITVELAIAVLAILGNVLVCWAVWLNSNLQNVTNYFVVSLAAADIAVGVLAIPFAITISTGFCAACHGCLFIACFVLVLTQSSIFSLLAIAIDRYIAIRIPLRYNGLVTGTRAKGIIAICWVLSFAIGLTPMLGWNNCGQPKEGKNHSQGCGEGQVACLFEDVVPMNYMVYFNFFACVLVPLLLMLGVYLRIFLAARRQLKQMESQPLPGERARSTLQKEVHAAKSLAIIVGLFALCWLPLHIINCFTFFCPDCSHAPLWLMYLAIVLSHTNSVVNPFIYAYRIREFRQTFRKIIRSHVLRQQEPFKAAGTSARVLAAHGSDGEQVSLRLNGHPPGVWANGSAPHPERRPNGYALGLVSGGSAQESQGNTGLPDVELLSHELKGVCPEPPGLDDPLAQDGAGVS
Kind of experiment: Adenosine receptor TR-FRET binding assay (CA200645 displacement), A2a. The note with it: 100 nM CA200645, CHO cell membranes, 2 hours at room temperature.

Experiment [4] has as its target T4, human Adenosine A3 receptor (Homo sapiens, UniProt P0DMS8).
T4 sequence (P0DMS8 1-318): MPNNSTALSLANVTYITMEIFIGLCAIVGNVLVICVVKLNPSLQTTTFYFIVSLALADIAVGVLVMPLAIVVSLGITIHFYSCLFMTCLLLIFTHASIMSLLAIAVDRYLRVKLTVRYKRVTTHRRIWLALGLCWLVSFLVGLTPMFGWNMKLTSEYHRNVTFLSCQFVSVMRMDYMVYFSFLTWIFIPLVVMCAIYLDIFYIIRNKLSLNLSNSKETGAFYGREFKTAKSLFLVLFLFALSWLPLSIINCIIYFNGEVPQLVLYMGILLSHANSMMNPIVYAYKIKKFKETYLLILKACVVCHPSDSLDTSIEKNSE
As to the kind of experiment: Adenosine receptor TR-FRET binding assay (CA200645 displacement), A3.

Where a name gives a salt, the structure may show the parent alone.

Drawing on patent US20230203041A1, “ANTAGONISTS OF THE ADENOSINE A2A RECEPTOR” (AdoRx Therapeutics Limited, priority 2020, published 2023), this text covers Ki for 23 compounds.

On to `Cc1cc(-c2c(-c3cccc(C#N)c3)nn3ccc(N4CCN[C@H](C(C)(C)O)C4)nc23)cc(Cl)n1` [Example 2.41], for which the Ki was 2 nM in experiment [1], 82 nM in experiment [2], 1.7 nM in experiment [3] and > 1000 nM in experiment [4].

As for `Cc1cc(-c2c(-c3cccc(C#N)c3)nn3ccc(NC4CCN(C)CC4)nc23)cc(Cl)n1` [Example 2.42], the Ki in experiment [1] is 4 nM; in experiment [2], 149 nM; in experiment [3], 0.5 nM; in experiment [4], > 1000 nM.

With `Cc1cc(-c2c(-c3cccc(C#N)c3)nn3ccc(NC[C@@H]4COCCN4)nc23)cc(Cl)n1` [Example 4.1], the Ki is 163 nM in experiment [1], 522 nM in experiment [2], 38.5 nM in experiment [3] and > 1000 nM in experiment [4].

On to `Cc1cc(-c2c(-c3cccc(C#N)c3)nn3ccc(N[C@@H]4CCNC4)nc23)cc(Cl)n1` [Example 4.3], for which the Ki in experiment [1] is 3 nM; in experiment [2] it was 8 nM; in experiment [3], 1.2 nM; in experiment [4] it was > 1000 nM.

Take `Cc1cc(-c2c(-c3cccc(C#N)c3)nn3ccc(N4C[C@@H]5NCCO[C@H]5C4)nc23)cc(Cl)n1` [Example 4.4]: the Ki in experiment [1] is 149 nM; in experiment [2] it was 1100 nM; in experiment [3] it was 3.2 nM; in experiment [4], > 1000 nM.

In the case of `Cc1cc(-c2c(-c3cccc(C#N)c3)nn3ccc(N[C@H]4CCNC4)nc23)cc(Cl)n1` [Example 4.6], the Ki in experiment [1] was 4 nM; in experiment [2] it was 230 nM; in experiment [3], 5.1 nM; in experiment [4], > 1000 nM.

`Cc1cc(-c2c(-c3cccc(C#N)c3)nn3ccc(N[C@H]4CCCNC4)nc23)cc(Cl)n1` [Example 4.7]: the Ki in experiment [1] is 6 nM; in experiment [2] it was 213 nM; in experiment [3] it was 13.9 nM; in experiment [4] it was > 1000 nM.

Regarding `Cc1cc(-c2c(-c3cccc(C#N)c3)nn3ccc(N[C@H](C)[C@H](O)CO)nc23)cc(Cl)n1` [Example 4.8, 3-[3-(2-Chloro-6-methyl-4-pyridyl)-5-[[(1R,2S)-2,3-dihydroxy-1-methyl-propyl]amino]pyrazolo[1,5-a]pyrimidin-2-yl]benzonitrile], the Ki in experiment [1] is 6 nM; in experiment [2] it was 7 nM; in experiment [3] it was 0.5 nM; in experiment [4] it was > 1000 nM.

On to `Cc1cc(-c2c(-c3cccc(C#N)c3)nn3ccc(N[C@@H](C)[C@H](O)CO)nc23)cc(Cl)n1` [Example 4.9, 3-[3-(2-Chloro-6-methyl-4-pyridyl)-5-[[(1S,2S)-2,3-dihydroxy-1-methyl-propyl]amino]pyrazolo[1,5-a]pyrimidin-2-yl]benzonitrile], for which the Ki in experiment [1] is 12 nM; in experiment [2], 5 nM; in experiment [3] it was 1.1 nM; in experiment [4] it was > 1000 nM.

Regarding `Cc1cc(-c2c(-c3cccc(C#N)c3)nn3ccc(NCC(C)(C)N)nc23)cc(Cl)n1` [Example 4.10, trifluoroacetate], the Ki is 12 nM in experiment [1], 43 nM in experiment [2], 3.3 nM in experiment [3] and > 1000 nM in experiment [4].

As for `Cc1cc(-c2c(-c3cccc(C#N)c3)nn3ccc(NCC4(O)CNC4)nc23)cc(Cl)n1` [Example 4.11, 3-[3-(2-chloro-6-methyl-4-pyridyl)-5-[(3-hydroxyazetidin-3-yl)methylamino]pyrazolo[1,5-a]pyrimidin-2-yl]benzonitrile trifluoroacetate], the Ki in experiment [1] is 1 nM; in experiment [2] it was 53 nM; in experiment [3], 6.8 nM; in experiment [4], > 1000 nM.

`Cc1cc(-c2c(-c3cccc(C#N)c3)nn3ccc(C(=O)NCCC(C)(C)O)nc23)cc(Cl)n1` [Example 5.3]: the Ki is 20 nM in experiment [1], 224 nM in experiment [2], 0.3 nM in experiment [3] and > 1000 nM in experiment [4].

`Cc1cc(-c2c(-c3cccc(C#N)c3)nn3ccc(C(=O)NCCN4CCN(c5ccccc5)CC4)nc23)cc(Cl)n1` [Example 5.4]: the Ki in experiment [1] was 19 nM; in experiment [2] it was 107 nM; in experiment [3], 1.3 nM; in experiment [4] it was > 1000 nM.

For `Cc1cc(-c2c(-c3cccc(C#N)c3)nn3ccc(C(=O)N4CCOCC4)nc23)cc(Cl)n1` [Example 5.7], the Ki in experiment [1] was 10 nM; in experiment [2], 135 nM; in experiment [3], 14.8 nM; in experiment [4], > 1000 nM.

For `Cc1cc(-c2c(-c3cccc(C#N)c3)nn3ccc(C(N)=O)nc23)cc(C)n1` [Example 5.8, 2-(3-Cyanophenyl)-3-(2,6-dimethyl-4-pyridyl)pyrazolo[1,5-a]pyrimidine-5-carboxamide], the Ki in experiment [1] was 41 nM; in experiment [2] it was 418 nM; in experiment [3] it was 5.7 nM; in experiment [4], > 1000 nM.

Regarding `Cc1cc(-c2c(-c3cccc(C#N)c3)nn3ccc(C(=O)NCC(C)(C)N)nc23)cc(Cl)n1` [Example 6.1, N-(2-Amino-2-methyl-propyl)-3-(2-chloro-6-methyl-4-pyridyl)-2-(3-cyanophenyl)pyrazolo[1,5-a]pyrimidine-5-carboxamide], the Ki in experiment [1] was 53 nM; in experiment [2], 664 nM; in experiment [3], 11.7 nM; in experiment [4], > 1000 nM.

Regarding `Cc1cc(-c2c(-c3cccc(C#N)c3)nn3ccc(C(=O)NCC4(O)CCC4)nc23)cc(Cl)n1` [Example 6.3, 3-(2-Chloro-6-methyl-4-pyridyl)-2-(3-cyanophenyl)-N-[(1-hydroxycyclobutyl)methyl]pyrazolo[1,5-a]pyrimidine-5-carboxamide], the Ki in experiment [1] is 3 nM; in experiment [2] it was 127 nM; in experiment [3] it was 0.3 nM; in experiment [4], > 1000 nM.

As for `Cc1cc(-c2c(-c3cccc(C#N)c3)nn3ccc(C(=O)NC[C@@H](C)O)nc23)cc(Cl)n1` [Example 6.5, 3-(2-Chloro-6-methyl-4-pyridyl)-2-(3-cyanophenyl)-N-[(2R)-2-hydroxypropyl]pyrazolo[1,5-a]pyrimidine-5-carboxamide], the Ki in experiment [1] was 7 nM; in experiment [2], 361 nM; in experiment [3], 0.9 nM; in experiment [4], > 1000 nM.

As for `Cc1cc(-c2c(-c3cccc(C#N)c3)nn3ccc(C(=O)N[C@H](C)CO)nc23)cc(Cl)n1` [Example 6.6, 3-(2-Chloro-6-methyl-4-pyridyl)-2-(3-cyanophenyl)-N-[(1R)-2-hydroxy-1-methyl-ethyl]pyrazolo[1,5-a]pyrimidine-5-carboxamide], the Ki in experiment [1] is 35 nM; in experiment [2], 390 nM; in experiment [3], 0.9 nM; in experiment [4], > 1000 nM.

With `Cc1cc(-c2c(-c3cccc(C#N)c3)nn3ccc(C(=O)NCC4(O)COC4)nc23)cc(Cl)n1` [Example 6.7, 3-(2-Chloro-6-methyl-4-pyridyl)-2-(3-cyanophenyl)-N-[(3-hydroxyoxetan-3-yl)methyl]pyrazolo[1,5-a]pyrimidine-5-carboxamide], the Ki in experiment [1] was 5 nM; in experiment [2], 174 nM; in experiment [3], 1.4 nM; in experiment [4], > 1000 nM.

`Cc1cc(-c2c(-c3cccc(C#N)c3)nn3ccc(C(=O)NS(C)(=O)=O)nc23)cc(Cl)n1` [Example 6.8, 3-(2-Chloro-6-methyl-4-pyridyl)-2-(3-cyanophenyl)-N-methylsulfonyl-pyrazolo[1,5-a]pyrimidine-5-carboxamide]: the Ki in experiment [1] is 39 nM; in experiment [2], 522 nM; in experiment [3], 8.3 nM; in experiment [4] it was 2550 nM.

Regarding `Cc1cc(-c2c(-c3cccc(C#N)c3)nn3ccc(C(=O)NCC4CC(O)C4)nc23)cc(Cl)n1` (centres unmarked) [Example 6.10, 3-(2-Chloro-6-methyl-4-pyridyl)-2-(3-cyanophenyl)-N-[(3-hydroxycyclobutyl)methyl]pyrazolo[1,5-a]pyrimidine-5-carboxamide], the Ki in experiment [1] is 24 nM; in experiment [2], 581 nM; in experiment [3], 2.5 nM; in experiment [4] it was > 1000 nM.

Turning to `Cc1cc(-c2c(-c3cccc(C#N)c3)nn3ccc(C(=O)NC45CCC(N)(CC4)C5)nc23)cc(Cl)n1` [Example 6.12, N-(4-Aminonorbornan-1-yl)-3-(2-chloro-6-methyl-4-pyridyl)-2-(3-cyanophenyl)pyrazolo[1,5-a]pyrimidine-5-carboxamide], the Ki was 6 nM in experiment [1], 105 nM in experiment [2], 3.7 nM in experiment [3] and > 1000 nM in experiment [4].
